Read-outs that look alike come from different tables or passages of the source.
Assays:
Type in all cases: biochemical
[1] = target: T1, β-Glucuronidase Bovine liver (Bos taurus, UniProt A3KMY8); assay: Glycosidase inhibition: β-Glucuronidase Bovine liver;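 note: bovine liver β-glucuronidase acting on p-nitrophenyl β-D-glucuronide substrate in citric acid/disodium hydrogen phosphate buffer, pH 5.0, 27 °C, mean of triplicate runs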
T1 construct: The assay involved the use of Bovine liver β-glucuronidase; purchased Sigma; host or cells: bovine liver
T1 sequence (A3KMY8 1-652): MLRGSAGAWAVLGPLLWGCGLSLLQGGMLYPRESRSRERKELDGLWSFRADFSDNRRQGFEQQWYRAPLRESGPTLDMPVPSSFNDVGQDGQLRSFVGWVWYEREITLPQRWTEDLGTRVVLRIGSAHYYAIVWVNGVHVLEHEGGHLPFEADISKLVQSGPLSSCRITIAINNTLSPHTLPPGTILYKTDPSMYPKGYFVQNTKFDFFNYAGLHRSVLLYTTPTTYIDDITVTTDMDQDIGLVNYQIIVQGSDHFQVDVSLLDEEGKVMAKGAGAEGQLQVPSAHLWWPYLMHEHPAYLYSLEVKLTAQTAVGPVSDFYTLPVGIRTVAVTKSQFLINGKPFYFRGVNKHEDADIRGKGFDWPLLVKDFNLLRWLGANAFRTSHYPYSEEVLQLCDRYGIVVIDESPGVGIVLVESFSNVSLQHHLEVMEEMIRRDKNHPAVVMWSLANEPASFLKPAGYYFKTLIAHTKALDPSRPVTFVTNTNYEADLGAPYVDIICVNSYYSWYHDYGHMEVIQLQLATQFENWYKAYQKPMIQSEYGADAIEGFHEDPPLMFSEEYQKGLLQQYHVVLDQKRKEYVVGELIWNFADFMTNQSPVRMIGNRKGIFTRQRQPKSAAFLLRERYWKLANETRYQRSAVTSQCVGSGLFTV

α-D-glucosidase (Yeast) = target: T2, α-D-glucosidase (Yeast) (Saccharomyces cerevisiae, UniProt P53341); assay: Glycosidase inhibition: α-D-glucosidase (Yeast); details: compounds tested at 0.8 mM
T2 construct: purchased Sigma
T2 sequence (P53341 whole entry): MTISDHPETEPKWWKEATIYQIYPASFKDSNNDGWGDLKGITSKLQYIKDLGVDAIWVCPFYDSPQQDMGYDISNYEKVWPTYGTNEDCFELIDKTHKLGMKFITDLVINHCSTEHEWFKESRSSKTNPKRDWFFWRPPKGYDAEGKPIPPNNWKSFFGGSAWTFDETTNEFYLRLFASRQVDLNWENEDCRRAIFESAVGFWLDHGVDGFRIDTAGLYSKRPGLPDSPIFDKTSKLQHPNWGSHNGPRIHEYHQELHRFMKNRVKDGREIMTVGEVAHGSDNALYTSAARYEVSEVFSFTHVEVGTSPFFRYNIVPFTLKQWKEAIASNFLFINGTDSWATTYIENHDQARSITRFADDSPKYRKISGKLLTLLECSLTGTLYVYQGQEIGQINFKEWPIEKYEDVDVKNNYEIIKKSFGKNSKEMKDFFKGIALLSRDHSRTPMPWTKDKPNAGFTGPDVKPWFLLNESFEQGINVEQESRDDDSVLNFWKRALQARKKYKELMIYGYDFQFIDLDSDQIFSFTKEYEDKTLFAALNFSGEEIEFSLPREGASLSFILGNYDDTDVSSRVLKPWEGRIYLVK
From the text: (§1) The results tabulated below were obtained using commercially available glycosidases and p-nitrophenyl-substrates using standard methods described for example by Watson et al (1997) Phytochemistry 46 255-259. All enzymes and substrates were bought from Sigma. Enzyme and substrate solutions were made using sodium phosphate buffers at the pH optima values. The enzymes used were α-D-glucosidase Saccharomyces cerevisiae, Bacillus stearothermophilus, Oryzae sativa), β-D-glucosidase (Almond), α-D-mannosidase (Jack bean), α-D-galactosidase (Green coffee beans), β-D-galactosidase (Bovine liver), α-L-fucosidase (Bovine kidney), N-acetyl-β-D-glucosaminidase (Bovine kidney, Jack bean, Aspergillus oryzae), Naringinase (Penicillium decumbens) and amyloglucosidase (Aspergillus niger). All enzymes were used with the appropriate p-nitrophenyl substrates (5 mM). Amyloglucosidase activity was measured using amylopectin (0.1%) (Merck) mixed with sodium phosphate buffer, pH 4.5 in a glass bottle, and healed in a boiling water bath for 20 minutes to dissolve with released glucose measured using ‘Trinder’ glucose detection solution (Sigma).
(§2) All enzymes and para-nitrophenyl substrates were purchased from Sigma, with the exception of beta-mannosidase which came from Megazyme. Enzymes were assayed at 27° C. in 0.1M citric acid/0.2M disodium hydrogen phosphate buffers at the optimum pH for the enzyme. The incubation mixture consisted of 10 μl enzyme solution, 10 μl of 1 mg/ml aqueous solution of extract and 50 μl of the appropriate 5 mM para-nitrophenyl substrate made up in buffer at the optimum pH for the enzyme. The reactions were stopped by addition of 70 μl 0.4M glycine (pH 10.4) during the exponential phase of the reaction, which had been determined at the beginning using uninhibited assays in which water replaced inhibitor. Final absorbances were read at 405 nm using a Versamax microplate reader (Molecular Devices). Assays were carried out in triplicate, and the values given are means of the three replicates per assay. (See Watson, A. A., Nash, R. J., Wormald, M. R., Harvey, D. J., Dealler, S., Lees, E., Asano, N., Kizu, H., Kato, A., Griffiths, R. C., Cairns, A. J. and Fleet, G. W. J. (1997). Glycosidase-inhibiting pyrrolidine alkaloids from Hyacinthoides non-scripta. Phytochemistry 46 (2): 255-259.)

[2] = target: T3, Amyloglucosidase Aspergillus niger (Aspergillus niger, UniProt P69328); assay: Glycosidase inhibition: Amyloglucosidase Aspergillus niger; details: compounds tested at 0.8 mM
T3 construct: purchased Sigma
T3 sequence (P69328 25-640): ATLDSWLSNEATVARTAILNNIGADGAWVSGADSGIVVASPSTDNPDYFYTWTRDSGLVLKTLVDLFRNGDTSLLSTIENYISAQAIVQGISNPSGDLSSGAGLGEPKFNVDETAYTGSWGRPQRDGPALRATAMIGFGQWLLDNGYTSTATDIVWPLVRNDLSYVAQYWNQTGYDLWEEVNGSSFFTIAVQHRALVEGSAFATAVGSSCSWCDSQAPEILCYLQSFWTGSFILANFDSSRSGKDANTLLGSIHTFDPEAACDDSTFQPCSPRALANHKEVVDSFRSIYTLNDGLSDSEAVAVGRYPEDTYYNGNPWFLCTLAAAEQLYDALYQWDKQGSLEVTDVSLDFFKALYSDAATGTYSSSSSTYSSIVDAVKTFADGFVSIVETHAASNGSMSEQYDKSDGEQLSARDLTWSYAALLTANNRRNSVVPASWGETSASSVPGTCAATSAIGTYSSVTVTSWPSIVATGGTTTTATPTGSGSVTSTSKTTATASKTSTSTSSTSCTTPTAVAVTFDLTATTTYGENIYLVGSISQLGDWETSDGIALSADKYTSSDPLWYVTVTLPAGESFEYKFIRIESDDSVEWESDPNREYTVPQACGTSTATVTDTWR
From the text: as §1, §2

α-D-glucosidase (Rice) = target: T4, α-D-glucosidase (Rice) (Oryza sativa subsp. japonica, UniProt Q653V7); assay: Glycosidase inhibition: α-D-glucosidase (Rice); details: for inhibition at 800 µM: compounds tested at 0.8 mM
T4 construct: purchased Sigma
T4 sequence (Q653V7 34-885): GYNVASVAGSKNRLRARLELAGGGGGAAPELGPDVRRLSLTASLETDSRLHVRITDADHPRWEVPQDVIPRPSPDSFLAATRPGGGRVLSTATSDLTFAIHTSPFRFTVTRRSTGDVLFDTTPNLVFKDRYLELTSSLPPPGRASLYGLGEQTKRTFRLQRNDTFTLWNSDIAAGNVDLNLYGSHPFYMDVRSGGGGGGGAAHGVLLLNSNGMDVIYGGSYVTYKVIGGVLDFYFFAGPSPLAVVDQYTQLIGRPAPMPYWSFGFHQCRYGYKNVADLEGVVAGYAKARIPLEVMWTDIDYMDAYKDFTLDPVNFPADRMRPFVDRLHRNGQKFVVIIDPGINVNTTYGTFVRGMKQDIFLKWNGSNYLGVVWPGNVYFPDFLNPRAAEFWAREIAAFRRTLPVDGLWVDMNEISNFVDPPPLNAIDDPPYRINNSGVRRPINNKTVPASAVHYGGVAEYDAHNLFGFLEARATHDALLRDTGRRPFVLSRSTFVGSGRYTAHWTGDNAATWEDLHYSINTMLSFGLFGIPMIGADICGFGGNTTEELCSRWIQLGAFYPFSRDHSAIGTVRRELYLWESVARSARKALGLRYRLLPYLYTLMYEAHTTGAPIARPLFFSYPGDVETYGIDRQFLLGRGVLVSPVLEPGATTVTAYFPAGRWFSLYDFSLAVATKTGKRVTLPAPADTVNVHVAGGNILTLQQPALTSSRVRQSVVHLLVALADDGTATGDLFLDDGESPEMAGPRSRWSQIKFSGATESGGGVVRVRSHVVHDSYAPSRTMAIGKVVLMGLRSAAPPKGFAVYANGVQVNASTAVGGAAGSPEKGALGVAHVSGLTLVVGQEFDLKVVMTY

[3] = target: T5, α-L-fucosidase Bovine kidney (Bos taurus, UniProt Q2KIM0); assay: Glycosidase inhibition: α-L-fucosidase Bovine kidney; details: compounds tested at 0.8 mM
T5 construct: α-L-fucosidase (Bovine kidney); purchased Sigma; host or cells: bovine kidney
T5 sequence (Q2KIM0 23-468): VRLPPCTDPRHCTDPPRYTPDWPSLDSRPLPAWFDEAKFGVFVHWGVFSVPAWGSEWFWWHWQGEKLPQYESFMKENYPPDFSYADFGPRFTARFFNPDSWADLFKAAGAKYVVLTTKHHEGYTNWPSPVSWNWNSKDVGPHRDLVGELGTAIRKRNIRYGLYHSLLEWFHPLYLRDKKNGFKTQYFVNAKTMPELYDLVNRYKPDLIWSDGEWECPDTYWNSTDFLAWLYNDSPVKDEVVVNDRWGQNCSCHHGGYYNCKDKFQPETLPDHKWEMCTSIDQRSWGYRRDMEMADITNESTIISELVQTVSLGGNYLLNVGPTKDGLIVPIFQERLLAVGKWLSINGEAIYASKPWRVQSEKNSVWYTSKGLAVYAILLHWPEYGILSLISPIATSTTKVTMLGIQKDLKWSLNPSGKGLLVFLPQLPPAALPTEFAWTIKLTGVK

[4] = tested on: N-acetyl-β-D-glucosaminidase (Bovine kidney); assay: Glycosidase inhibition: N-acetyl-β-D-glucosaminidase (Bovine kidney); details: for % inhibition, N-acetyl-β-D-glucosaminidase (Bovine kidney): compounds tested at 0.8 mM;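 for all read-outs here: enzyme activity followed by cleavage of the matching p-nitrophenyl glycoside (5 mM) in phosphate buffer set to the enzyme's optimal pH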
[5] = target: T6, α-D-mannosidase Jack bean (Canavalia ensiformis, UniProt C0HJB3); assay: Glycosidase inhibition: α-D-mannosidase Jack bean; details: compounds tested at 0.8 mM
T6 construct: α-D-mannosidase (Jack bean); purchased Sigma
T6 sequence (C0HJB3 1-981): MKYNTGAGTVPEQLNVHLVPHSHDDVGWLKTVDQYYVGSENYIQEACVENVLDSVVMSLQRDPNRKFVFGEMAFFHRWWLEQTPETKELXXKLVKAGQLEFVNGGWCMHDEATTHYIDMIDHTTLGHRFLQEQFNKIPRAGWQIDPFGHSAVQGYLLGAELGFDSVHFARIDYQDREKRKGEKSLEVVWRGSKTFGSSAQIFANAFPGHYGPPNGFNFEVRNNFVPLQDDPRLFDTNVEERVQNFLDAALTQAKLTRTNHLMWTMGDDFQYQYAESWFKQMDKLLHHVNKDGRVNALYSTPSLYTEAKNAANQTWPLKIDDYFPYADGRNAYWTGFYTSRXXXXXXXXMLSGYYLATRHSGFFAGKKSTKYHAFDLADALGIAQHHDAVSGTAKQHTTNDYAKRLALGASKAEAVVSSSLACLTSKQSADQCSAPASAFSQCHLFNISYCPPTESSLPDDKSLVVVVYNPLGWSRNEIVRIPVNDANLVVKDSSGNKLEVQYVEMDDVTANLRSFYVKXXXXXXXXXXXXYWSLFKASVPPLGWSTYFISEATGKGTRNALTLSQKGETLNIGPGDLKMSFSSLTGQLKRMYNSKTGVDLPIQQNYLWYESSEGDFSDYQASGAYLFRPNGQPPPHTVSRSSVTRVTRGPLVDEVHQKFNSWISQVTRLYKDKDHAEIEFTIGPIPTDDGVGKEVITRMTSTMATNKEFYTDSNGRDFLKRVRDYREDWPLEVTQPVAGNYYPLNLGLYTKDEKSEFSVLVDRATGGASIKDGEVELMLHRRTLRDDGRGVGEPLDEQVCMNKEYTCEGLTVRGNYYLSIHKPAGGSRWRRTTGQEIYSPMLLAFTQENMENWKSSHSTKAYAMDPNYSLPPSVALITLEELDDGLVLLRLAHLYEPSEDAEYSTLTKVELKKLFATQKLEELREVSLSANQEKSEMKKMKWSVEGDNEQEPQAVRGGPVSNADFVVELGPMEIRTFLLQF

[6] = target: T7, N-acetyl-β-D-glucosaminidase (A. oryzae) (Aspergillus oryzae, UniProt Q8J2T0); assay: Glycosidase inhibition: N-acetyl-β-D-glucosaminidase (A. oryzae); details: compounds tested at 0.8 mM
T7 construct: purchased Sigma
T7 sequence (Q8J2T0 97-600): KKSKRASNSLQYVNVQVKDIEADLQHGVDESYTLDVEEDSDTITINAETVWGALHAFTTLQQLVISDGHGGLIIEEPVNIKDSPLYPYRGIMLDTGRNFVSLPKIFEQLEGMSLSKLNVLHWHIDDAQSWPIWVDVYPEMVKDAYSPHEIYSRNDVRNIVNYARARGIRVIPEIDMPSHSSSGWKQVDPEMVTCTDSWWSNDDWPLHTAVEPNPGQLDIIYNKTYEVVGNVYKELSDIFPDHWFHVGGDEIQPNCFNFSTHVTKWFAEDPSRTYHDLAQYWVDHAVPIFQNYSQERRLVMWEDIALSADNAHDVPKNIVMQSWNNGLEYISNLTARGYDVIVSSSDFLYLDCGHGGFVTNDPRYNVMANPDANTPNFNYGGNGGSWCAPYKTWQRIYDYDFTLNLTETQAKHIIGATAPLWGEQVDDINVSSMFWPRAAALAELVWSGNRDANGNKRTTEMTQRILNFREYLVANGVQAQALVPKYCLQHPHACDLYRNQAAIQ
From the text: as §1, §2

[7] = target: T8, α-D-galactosidase Green coffee bean (Coffea arabica, UniProt Q42656); assay: Glycosidase inhibition: α-D-galactosidase Green coffee bean; details: compounds tested at 0.8 mM
T8 construct: α-D-galactosidase (Green coffee beans); purchased Sigma; host or cells: green coffee beans
T8 sequence (Q42656 16-378): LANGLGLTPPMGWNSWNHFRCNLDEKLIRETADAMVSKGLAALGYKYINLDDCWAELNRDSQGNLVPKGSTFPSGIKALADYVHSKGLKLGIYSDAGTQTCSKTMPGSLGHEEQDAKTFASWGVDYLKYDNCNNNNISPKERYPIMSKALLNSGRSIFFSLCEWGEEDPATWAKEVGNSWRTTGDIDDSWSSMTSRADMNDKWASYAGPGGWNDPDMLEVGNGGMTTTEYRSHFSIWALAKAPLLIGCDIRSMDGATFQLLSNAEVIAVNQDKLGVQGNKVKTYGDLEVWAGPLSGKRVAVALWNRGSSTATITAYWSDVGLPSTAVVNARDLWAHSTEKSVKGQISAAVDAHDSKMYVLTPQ
From the text: as §1, §2

[8] = target: α-D-glucosidase (Bacillus) (Geobacillus stearothermophilus, UniProt A0ACH1E9U3); assay: Glycosidase inhibition: α-D-glucosidase (Bacillus); details: compounds tested at 0.8 mM
Chain of α-D-glucosidase (Bacillus) (A0ACH1E9U3 entry or part of it): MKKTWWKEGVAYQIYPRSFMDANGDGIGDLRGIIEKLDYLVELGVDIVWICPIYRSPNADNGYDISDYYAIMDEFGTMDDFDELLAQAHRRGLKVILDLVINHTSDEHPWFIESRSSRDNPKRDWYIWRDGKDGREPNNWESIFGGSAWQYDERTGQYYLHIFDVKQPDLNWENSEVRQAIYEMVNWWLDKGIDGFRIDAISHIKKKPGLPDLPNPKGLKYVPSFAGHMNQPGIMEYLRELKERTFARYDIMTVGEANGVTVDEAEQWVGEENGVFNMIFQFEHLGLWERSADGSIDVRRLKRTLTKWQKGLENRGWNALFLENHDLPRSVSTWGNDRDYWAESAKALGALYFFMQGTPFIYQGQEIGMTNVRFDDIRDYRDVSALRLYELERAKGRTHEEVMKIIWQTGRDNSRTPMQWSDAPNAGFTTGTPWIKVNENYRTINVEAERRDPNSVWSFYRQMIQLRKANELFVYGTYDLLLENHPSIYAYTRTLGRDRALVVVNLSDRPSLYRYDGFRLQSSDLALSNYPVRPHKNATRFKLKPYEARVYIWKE
From the text: as §1, §2

Structure (SMILES)	IC50 ([1]; read-out: IC50 against mammalian glucuronidase) [µM]	inhibition at 800 µM (α-D-glucosidase (Yeast)) [%]	inhibition at 800 µM [2] [%]	inhibition at 800 µM (α-D-glucosidase (Rice)) [%]	IC50 (α-D-glucosidase (Rice); read-out: IC50, α-D-glucosidase (Rice)) [µM]	inhibition at 800 µM [3] [%]	% inhibition, N-acetyl-β-D-glucosaminidase (Bovine kidney) [4] [%]	IC50 ([4]; read-out: IC50 against mammalian 6-N-acetylglucosaminidase (hexosaminidase)) [µM]	inhibition at 800 µM [5] [%]	inhibition at 800 µM [6] [%]	inhibition at 800 µM [7] [%]	inhibition at 800 µM [8] [%]	IC50 ([1]; pH 5.0, 27° C., p-nitrophenyl β-D-glucuronide, read-out: IC50, β-Glucuronidase Bovine liver) [µM]	IC50 ([4]; read-out: IC50, N-acetyl-β-D-glucosaminidase (Bovine kidney)) [µM]
O=C(O)[C@@H]1[C@@H](O)[C@H](O)[C@@H](O)CN1CCO [Compound T3, (2S,3R,4R,5S)-3,4,5-Trihydroxy-1-(2-hydroxyethyl)piperidine-2-carboxylic acid]	60	< 50	< 50	67.2	259	< 50	82.0	12.2	< 50	< 50	< 50	< 50		
O=C(O)CN1C[C@@H](O)[C@H](O)[C@H]1CO [Compound T4, 2-((2R,3R,4R)-3,4-Dihydroxy-2-(hydroxymethyl)pyrrolidin-1-yl)acetic acid]		< 50	< 50	< 50		< 50	81.9		< 50	< 50	< 50	< 50	160	39.6
